Key:
[1] = molecular target: T1, PKM2 (Homo sapiens, UniProt P14618); test: PKM2 Assay; format: biochemical; details: activation of PKM2 enzyme, LDH-coupled, absorbance at 340 nm; read-out: PKM2_AC50
Method: • PKM2 stock enzyme solution was diluted in Reaction Buffer • 2 μL of compound was added into each well first, and then 180 μL of the Reaction Mix was added. • Reaction mixture with compound (without ADP) were incubated for 30 minutes at 4° C. • Plates were re-equilibrated to room temperature prior to adding 20 μL ADP to initiate the reaction. • Reaction progress was measured as changes in absorbance at 340 nm wavelength at room temperature (25° C.) • Reaction Mix: PKM2 (50 ng/well), ADP (0.7 mM), PEP (0.15 mM), NADH (180 μM), LDH (2 units) in Reaction Buffer • Reaction Buffer: 100 mM KCl, 50 mM Tris pH 7.5, 5 mM MgCl2, 1 mM DTT, 0.03% BSA.
Target sequence in this assay (P14618 whole entry): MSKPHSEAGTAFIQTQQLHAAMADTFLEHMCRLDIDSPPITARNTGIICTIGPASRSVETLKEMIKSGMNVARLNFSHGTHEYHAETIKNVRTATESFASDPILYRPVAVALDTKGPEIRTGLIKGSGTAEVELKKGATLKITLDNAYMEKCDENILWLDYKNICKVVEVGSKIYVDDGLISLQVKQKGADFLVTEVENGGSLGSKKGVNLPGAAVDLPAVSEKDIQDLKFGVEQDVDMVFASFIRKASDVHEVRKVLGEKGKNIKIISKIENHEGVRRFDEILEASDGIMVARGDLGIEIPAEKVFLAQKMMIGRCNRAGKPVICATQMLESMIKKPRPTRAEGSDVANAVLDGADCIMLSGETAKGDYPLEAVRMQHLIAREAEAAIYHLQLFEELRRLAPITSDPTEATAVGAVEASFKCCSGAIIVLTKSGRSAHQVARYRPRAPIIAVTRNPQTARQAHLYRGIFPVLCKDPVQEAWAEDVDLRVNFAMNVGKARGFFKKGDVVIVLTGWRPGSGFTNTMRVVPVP

[2] = molecular target: T1, PKM2; test: PKM2 Ex-Vivo Assay; format: cell-based; parameters: endogenous in cells; host or cells: A549; details: A549 cells treated with compound 1-4 hrs, pyruvate kinase activity in lysate; read-out: Ex-Vivo_AC50
Method: Described herein is a method to measure the activity of PKM2 activators in living cells and tissue. One of ordinary skill in the art would recognize and understand that this method can be adapted to high throughput format, and can accommodate a variety of cell lines and growth conditions.
In the assay, cells are treated with a compound described herein (i.e., a PKM2 activator). This compound is capable of entering the cell and binding to PKM2, inducing an activated conformation. The excess unbound compound is washed away with PBS, and the cells are lysed by snap-freezing on dry ice, followed by addition of a detergent-containing lysis buffer. The lysate, in which activated PKM2 remains intact, is removed and added to a chemical cocktail including the chemicals necessary to measure pyruvate kinase activity, in an assay that is coupled to the LDHa enzyme. The amount of pyruvate kinase activity that is measured is normalized to the total protein content in the lysate, and related to the concentration of PKM2 activator that was added to the cell. This allows an AC50 (concentration at which PKM2 is activated 50%) value to be derived. The total fold-increase in activity over mock-treated cells can also be calculated, and the “maximum level of activation” can be used to distinguish between compounds that fully activate PKM2 and compounds that can only partially activate PKM2.
• Lysis buffer* • 20 mM Tris-HCl (pH 7.5) • 150 mM NaCl • 1 mM Na2EDTA • 1 mM EGTA • 1% Triton • 2.5 mM sodium pyrophosphate • 1 mM beta-glycerophosphate • 1 mM Na3VO4 • 1 μg/ml leupeptin • 1 mM PMSF** * This lysis buffer (without PMSF) is available from Cell Signaling Technology as a 10× stock (#9803) ** 1 mM PMSF is added fresh from a 100 mM stock solution made up in isopropanol. The stock solution can be stored at 4 degrees indefinitely. Pyruvate Kinase Assay Master Mix (Same for PKM2 Activator Assay):
On the first day (day 1) cells are normally cultured in RPMI-1640 (Lonza #[…].) (with 25 mM Hepes, L-glutamine)/10% FBS. The cells are subsequently trypsinized and plated in RPMI-1640 (Lonza, #12-918F) (no phenol red, supplemented with L-glutamine @300 mg/L (Sigma, #G8540))/10% FBS at the following densities in 96 well plates:
100 uL final volume of media per well.
On the second day (Day 2), the cells should be 70-90% confluent. The cells are then treated with a compound described herein dissolved in media at final assay concentrations in a 96-well assay block (500 uL) (Costar, #3956). The final DMSO concentration is 0.1% (0.5 μL into 500 uL). Compound dilutions in DMSO are prepared so that the final DMSO concentration is constant at all compound concentrations. The media for the assay is RPMI-1640 (no phenol red, with L-glutamine @300 mg/L).
The media is then aspirated carefully from the cells using a multi-channel aspirator. 100 μL of media w/compounds is added onto cells with a multichannel pipette. Each compound concentration is then assayed in triplicate (a duplicate assay is also sufficient).
The cells are treated for 1-4 hrs (this time is determined empirically compared to DMSO reference treatment). During the cell treatment, PBS (containing calcium and magnesium) and lysis buffer is cooled on ice.
The cells are lysed and the pyruvate kinase activity is assayed. The remaining media is aspirated and the cells are washed 2× with 100 uL ice-cold PBS. The PBS is removed, and the cell plate frozen on dry ice for 5 minutes. The cells are lysed in 50 μL cold lysis buffer. Cells are subsequently kept on ice for 5 minutes, and then agitated on a plate shaker for 5 minutes (repeat 3×). Remove 10 μL for protein quantitation (or use OD280 on entire plate).
In a fresh plate, 170 uL of pyruvate kinase assay master mix was added to each well (see end for recipe). 10 uL of cell lysate was then transferred into each well. The assay was initiated upon addition of 20 uL of ADP solution. […]
Target sequence in this assay (P14618 2-531 limits assumed): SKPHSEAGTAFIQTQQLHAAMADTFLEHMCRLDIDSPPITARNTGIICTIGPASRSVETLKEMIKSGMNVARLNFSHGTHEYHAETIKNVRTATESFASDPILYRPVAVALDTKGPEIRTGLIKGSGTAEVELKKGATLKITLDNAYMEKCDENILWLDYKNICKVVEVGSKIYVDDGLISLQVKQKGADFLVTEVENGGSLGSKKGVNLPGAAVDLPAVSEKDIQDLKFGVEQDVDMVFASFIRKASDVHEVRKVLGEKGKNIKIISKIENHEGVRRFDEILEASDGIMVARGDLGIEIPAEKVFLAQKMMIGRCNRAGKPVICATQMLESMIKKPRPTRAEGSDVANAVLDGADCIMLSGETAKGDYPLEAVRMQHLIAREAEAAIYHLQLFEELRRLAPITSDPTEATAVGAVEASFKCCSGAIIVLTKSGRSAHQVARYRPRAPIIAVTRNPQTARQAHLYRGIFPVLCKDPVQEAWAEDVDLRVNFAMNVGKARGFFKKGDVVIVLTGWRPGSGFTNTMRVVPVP

Row | Compound | AC50 [1] [nM] | AC50 [2] [nM]
1 | Cc1cc(NS(=O)(=O)c2cccn2-c2ncccc2Cl)ccc1F [drawing 161] | 100 to 500 | ≤ 1000
2 | O=S(=O)(Nc1ccc2ccccc2c1)c1cncn1-c1ncc(C(F)(F)F)cc1Cl [drawing 128] | < 100 | ≤ 1000
3 | Cc1cc(C)cc(NS(=O)(=O)c2cccn2-c2ncccn2)c1 |  | ≤ 1000
4 | Cc1cc(NS(=O)(=O)c2cncn2-c2ncc(C(F)(F)F)cc2Cl)ccc1F | < 100 | ≤ 1000
5 | Cc1cc(C)cc(NS(=O)(=O)c2cccn2-c2ncc(C(F)(F)F)cc2Cl)c1 |  | ≤ 1000
6 | O=S(=O)(Nc1ccc(Cl)cc1)c1cccn1-c1ncc(C(F)(F)F)cc1Cl |  | ≤ 1000
7 | Cc1cc(C)cc(NS(=O)(=O)c2cncn2-c2ncc(C(F)(F)F)cc2Cl)c1 |  | ≤ 1000
8 | CCc1cccc(NS(=O)(=O)c2cccn2-c2ccnc(Cl)n2)c1 | 100 to 500 | > 1000
9 | O=S(=O)(Nc1cc(F)cc(F)c1)c1cccn1-c1ncc(C(F)(F)F)cc1Cl | < 100 | ≤ 1000
10 | Cc1cc(NS(=O)(=O)c2cncn2-c2ncc(C(F)(F)F)cc2Cl)ccc1Cl | 100 to 500 | ≤ 1000
11 | Cc1cc(C)cc(NS(=O)(=O)c2cccn2-c2ccnc(Cl)n2)c1 | < 100 | > 1000
12 | O=S(=O)(Nc1ccc(F)c(Cl)c1)c1cncn1-c1ncccn1 [drawing 160] |  | ≤ 1000
13 | O=S(=O)(Nc1ccc(Cl)cc1)c1cncn1-c1cnccn1 | 1000 to 10000 | ≤ 1000

Continued, values first:

Row | AC50 [1] [nM] | AC50 [2] [nM] | Compound
14 | < 100 | ≤ 1000 | O=S(=O)(Nc1ccc2c(c1)OCO2)c1cccn1-c1ncccc1Cl
15 | < 100 | > 1000 | Cc1cc(C)cc(NS(=O)(=O)c2cccn2-c2nccc(Cl)n2)c1
16 | < 100 | ≤ 1000 | O=S(=O)(Nc1ccccc1)c1cccn1-c1ncc(C(F)(F)F)cc1Cl
17 | < 100 | ≤ 1000 | Cc1cc(C)cc(NS(=O)(=O)c2cnn(-c3ncc(C(F)(F)F)cc3Cl)c2)c1
18 |  | ≤ 1000 | Cc1cc(NS(=O)(=O)c2cccn2-c2ncc(C(F)(F)F)cc2Cl)ccc1F
19 | 100 to 500 | ≤ 1000 | O=S(=O)(Nc1ccc2ccccc2c1)c1cncn1-c1ncc(C(F)(F)F)cc1Cl [drawing 151]
20 | < 100 | ≤ 1000 | Cc1ccc(NS(=O)(=O)c2cccn2-c2ncc(C(F)(F)F)cc2Cl)cc1
21 | 100 to 500 | ≤ 1000 | O=S(=O)(Nc1ccc(F)c(Cl)c1)c1cncn1-c1ncc(C(F)(F)F)cc1Cl
22 |  | ≤ 1000 | O=S(=O)(Nc1ccc(Cl)cc1)c1cccn1-c1ncccc1Cl [drawing 87]
23 | 100 to 500 | ≤ 1000 | Cc1cc(NS(=O)(=O)c2cncn2-c2ncccn2)ccc1F [drawing 158]
24 | 100 to 500 | ≤ 1000 | O=S(=O)(Nc1cccc(Cl)c1)c1cncn1-c1ncc(C(F)(F)F)cc1Cl
25 | < 100 | ≤ 1000 | O=S(=O)(Nc1cccc(Cl)c1)c1cccn1-c1ncc(C(F)(F)F)cc1Cl
26 | < 100 | ≤ 1000 | Cc1cc(NS(=O)(=O)c2cccn2-c2ncc(C(F)(F)F)cc2Cl)ccc1Cl
27 |  | ≤ 1000 | O=S(=O)(Nc1ccc2c(c1)OCO2)c1cccn1-c1ncc(C(F)(F)F)cc1Cl
28 | < 100 | > 1000 | O=S(=O)(Nc1ccc(F)c(Cl)c1)c1cccn1-c1ccnc(Cl)n1
29 |  | ≤ 1000 | Cc1cccc(NS(=O)(=O)c2cncn2-c2ncc(C(F)(F)F)cc2Cl)c1
30 | 100 to 500 | ≤ 1000 | Cc1cc(C)cc(NS(=O)(=O)c2cccn2-c2ccc(C(F)(F)F)cn2)c1
31 | < 100 | ≤ 1000 | Cc1ccc(NS(=O)(=O)c2cncn2-c2ncc(C(F)(F)F)cc2Cl)cc1C
32 | < 100 | ≤ 1000 | Cc1ccc(NS(=O)(=O)c2cccn2-c2ncc(C(F)(F)F)cc2Cl)cc1C

Source: US9938259B2, “Therapeutic compositions and related methods of use” (Agios Pharmaceuticals, Inc., priority 2009, dated 2018)
